Experimental data: patent publication US4585866A, “Treatment of migraine with substituted tropyl benzoate derivatives” (Merrell Dow Pharmaceuticals Inc., priority 1984, dated 1986)
Like-named read-outs stand apart in the source and are kept apart here.

What was measured:
[1] = target: T1, 5-HT M-receptor (Oryctolagus cuniculus, UniProt A0A5F9C9J3); assay: pA2 against 5-HT in isolated rabbit heart; type: cell-based
T1 construct: determining their pA2 values in the isolated rabbit heart; from tissue; host or cells: isolated rabbit heart (receptor on the cardiac neurones)
T1 sequence (A0A5F9C9J3 1-494): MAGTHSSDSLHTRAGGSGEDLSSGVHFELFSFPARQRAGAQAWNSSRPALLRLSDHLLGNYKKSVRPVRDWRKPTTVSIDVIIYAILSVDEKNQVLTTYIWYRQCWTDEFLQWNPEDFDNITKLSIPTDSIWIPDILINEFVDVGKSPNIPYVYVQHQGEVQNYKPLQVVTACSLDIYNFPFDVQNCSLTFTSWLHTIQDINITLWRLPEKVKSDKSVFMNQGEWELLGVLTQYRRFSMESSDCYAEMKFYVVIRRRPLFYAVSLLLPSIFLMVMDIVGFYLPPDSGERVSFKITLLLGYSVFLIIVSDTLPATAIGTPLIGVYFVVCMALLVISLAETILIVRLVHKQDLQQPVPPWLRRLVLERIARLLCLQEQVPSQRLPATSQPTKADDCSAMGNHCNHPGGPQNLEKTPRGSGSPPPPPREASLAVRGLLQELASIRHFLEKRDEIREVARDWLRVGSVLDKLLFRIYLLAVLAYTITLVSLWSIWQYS
Description: (§1) The activity of the compounds against 5-HT can be assessed by determining their pA2 values in the isolated rabbit heart as described by J. R. Fozard et al, Eur. J. Pharmacol., 59, 195-210 (1979). In the method described, the molar concentration of antagonist which reduces the effects of twice the ED50 of 5-HT to that of the ED50 in the absence of antagonist is determined. The pA2 value is the negative logarithm of said molar concentrations.

[2] = system: Von Bezold-Jarisch Reflex (5-HT M-receptor); assay: Antagonism of the Von Bezold-Jarisch reflex evoked by 5-HT in the anaesthetized rat; type: in vivo, rat (male Sprague-Dawley); details: comparison in words, i.v.
Text: The activity of these compounds against 5-HT can be assessed in vivo by measurement of the effect of the compound on the Von Bezold-Jarisch Reflex induced by 5-HT injected intravenously into the rat (A. S. Paintal, Physiol. Rev. 53, 159-227, 1973). The transient caridac slowing arises from an increased afferent vagus activity arising from stimulation by 5-HT of sensory afferent fibres in and around the heart (see Example 3).
Antagonism of the Von Bezold-Jarisch reflex evoked by 5-HT in the anaesthetized rat was measured for tropyl 3,5-dimethoxybenzoate (A), tropyl 3,5-dimethylbenzoate (B) and tropyl 3,5-dichlorobenzoate (C) using the following method.
Male Sprague-Dawley rats weighing 250-300 g are anaesthetized with urethane, 1.25 g/kg injected intraperitoneally and set up for recording blood pressure and heart rate as described in J. R. Fozard et al, J. Cardiovas. Pharmacol. 2, 229-245 (1980). A submaximal dose of 5-HT ([…]) is given repeatedly into the cannulated jugular vein and changes in heart rate are quantified. Antagonists are given intravenously and the doses required to just inhibit the response to 5-HT (threshold dose) or to inhibit the response to 5-HT by 50% (ED50) are determined.

[3] = LD50 in the mouse; type: in vivo; details: in vivo, mouse
[4] = system: mouse; assay: LD50 in the mouse; type: in vivo; details: as shown by LD50 values in the mouse and rat
[5] = LD50 in the rat; details: in vivo, iv
[6] = target: T2, rabbit heart (5-HT M receptor) (Oryctolagus cuniculus, UniProt A0A5F9C9J3); assay: Inhibition of standard response to 5-HT, rabbit heart; type: cell-based
T2 construct: RABBIT HEART; from tissue; host or cells: rabbit heart
T2 sequence (A0A5F9C9J3 1-494): T1 sequence (A0A5F9C9J3 1-494)
Description: as §1
(§2) A selection of classical in vitro pharmacological test preparations (rat uterus, rat fundus, guinea-pig ileum, guinea-pig taenia caeci) were set up according to well-established procedures (see "Pharmacological Experiments on Isolated Preparations" Staff of the Department of Pharmacology, University of Edinburgh, Livingstone, Edinburgh 1970). Various spasmogens were used to elicit contraction of these tissues though mechanisms other than the 5-HT "M" receptor. The concentrations of tropyl 3,5-dimethoxybenzoate (A), tropyl 3,5-dimethylbenzoate (B) and tropyl 3,5-dichlorobenzoate (C) which reduced the effects of a submaximal dose of agonist by 50% were determined (IC50). The results are set forth in Table VI below in which the compounds are identified by the reference letters used above.

[7] = system: rat uterus; assay: Inhibition of standard response to 5-HT, rat uterus; type: cell-based; details: agonist 5-HT, read-out: Concentration to inhibit standard response to stimulants by 50% (IC50)
Text: as §2

[8] = system: rat uterus; assay: Inhibition of standard response to oxytocin, rat uterus; type: cell-based; details: agonist oxytocin, read-out: Concentration to inhibit standard response to stimulants by 50% (IC50)
Text: as §2

[9] = system: rat fundus; assay: Inhibition of standard response to 5-HT, rat fundus; type: cell-based; details: agonist 5-HT, read-out: Concentration to inhibit standard response to stimulants by 50% (IC50)
Text: as §2

[10] = system: rat fundus; assay: Inhibition of standard response to acetylcholine, rat fundus; type: cell-based; details: agonist acetylcholine, read-out: Concentration to inhibit standard response to stimulants by 50% (IC50)
Text: as §2

[11] = system: guinea-pig ileum; assay: Inhibition of standard response to acetylcholine, guinea-pig ileum; type: cell-based; details: Cavia porcellus, agonist acetylcholine, read-out: Concentration to inhibit standard response to stimulants by 50% (IC50)
Text: as §2

[12] = system: guinea-pig ileum; assay: Inhibition of standard response to histamine, guinea-pig ileum; type: cell-based; details: Cavia porcellus, agonist histamine, read-out: Concentration to inhibit standard response to stimulants by 50% (IC50)
Text: as §2

[13] = system: guinea-pig taenia caeci; assay: Inhibition of standard response to calcium, guinea-pig taenia caeci; type: cell-based; details: Cavia porcellus; guinea-pig taenia caeci in potassium-depolarized Tyrode solution, agonist calcium; read-out: Concentration to inhibit standard response to stimulants by 50% (IC50)
Text: as §2
*In potassiumdepolarized Tyrode solution

[14] = system: 5-HT D-receptor; details: at the doses used clinically for the treatment of migraine; cited from earlier work
[15] = target: T1, 5-HT M-receptor; details: reported by J. R. Fozard et al, Eur. J. Pharmacol. 1979 / 1978; cited from earlier work
[16] = system: migraine or cluster headaches; assay: Pilot study of intravenous tropyl 3,5-dichlorobenzoate in patients with migraine or cluster headaches; type: in vivo
Text: Pilot Study of Tolerance To Intravenous Tropyl 3,5-Dichlorobenzoate in Patients With Migraine or Cluster Headaches
This study was designed to evaluate tolerance and, if possible, efficacy of intravenous tropyl 3,5-dichlorobenzoate in patients with migraine or cluster headaches.
Eight patients (4 males), aged 27-47 with known headache disorders of 5-27 years duration (see Table VII) took part in the study but Patients Nos. 2 and 4 had cluster not migraine headaches and the cause of headaches in Patient No. 6 was unknown.
Tropyl 3,5-dichlorobenzoate was provided as a sterile solution, 1 mg/ml; the desired dose to be diluted in 10 ml normal saline for intravenous infusion over a 2 minute period. No other therapy was taken for at least 24 hours before treatment or during the course of therapy.

[17] = isolated rabbit heart, negative log of molar concentration of antagonist reducing effect of twice the ED50 of 5-HT to that of the ED50, read-out: pA2 5-HT (converted)
[18] = Patient 6, i.v., after 4 mg dose
[19] = Patient 8, i.v., first day of 9 mg

With `COc1cc(OC)cc(C(=O)O[C@H]2C[C@H]3CC[C@@H](C2)N3C)c1` [tropyl 3,5-dimethoxybenzoate] the Kb [1, 17] was 3.98 nM, the “potency relative to metoclopramide” value [2] was “many times more potent than metoclopramide” and the LD50 ([3]; ip) was 28 mg/kg. For the same compound, the LD50 ([3]; iv) was 29 mg/kg, the LD50 ([3]; sc) was 17 mg/kg and the LD50 ([3]; oral) was 160 mg/kg. For the same compound, the toxicity in words [4] was “relatively non-toxic”, the LD50 [5] was 13 mg/kg and the IC50 ([6]; rabbit heart, agonist 5-HT, read-out: Concentration to inhibit standard response to stimulants by 50% (IC50)) was 9.4 nM. The IC50 [7] was > 52500 nM, the IC50 [8] was > 52500 nM and the IC50 [9] was 40000 nM. For the same compound, the IC50 [10] was 13100 nM, the IC50 [11] was 9560 nM and the IC50 [12] was 6610 nM. It also gave an IC50 [13] of 36100 nM.
Compound `COc1cc(C(=O)O[C@H]2C[C@H]3CC[C@@H](C2)N3C)cc(OC)c1OC` [tropyl 3,4,5-trimethoxybenzoate] has a Kb [1, 17] of 3.16 nM.
In the case of `CC[C@@H](CO)NC(=O)[C@@H]1C=C2c3cccc4c3c(cn4C)C[C@H]2N(C)C1` [methysergide], the “5-HT D-receptor antagonism” value [14] is listed as 5-HT D-receptor antagonists.
For `CN(C)CCC=C1c2ccccc2CCc2ccccc21` [amitriptyline], the “5-HT D-receptor antagonism” value [14] is listed as 5-HT D-receptor antagonists.
Compound `Cc1cccc(C(=O)O[C@H]2C[C@H]3CC[C@@H](C2)N3C)c1` [tropyl 3-methylbenzoate] has a Kb [1, 17] of 6.31 nM.
In the case of `CN1[C@@H]2CC[C@H]1C[C@@H](OC(=O)c1cccc(Cl)c1)C2` [tropyl 3-chlorobenzoate], the Kb [1, 17] is reported as 2.51 nM.
In the case of `CN1[C@@H]2CC[C@H]1C[C@@H](OC(=O)c1ccccc1)C2` [tropylbenzoate, reference compound], the Kb [1, 17] is given as 63.1 nM and the “pA2 value (5-HT)” value [15] is given as 7.12.
In the case of `COC(=O)C1C2CCC(CC1OC(=O)c1ccccc1)N2` (single isomer, unassigned) [nor(-) cocaine], the “pA2 value (5-HT)” value [15] is listed as 7.7.
Work on `O=C(O[C@H]1C[C@H]2CC[C@@H](C1)N2)c1cc(Cl)cc(Cl)c1` [nortropyl 3,5-dichlorobenzoate, reference compound] yielded a Kb [1, 17] of 15.8 nM.
In the case of `CC(C)NC[C@H](O)COc1cccc2ccccc12` (racemic) [propanolol], the “5-HT D-receptor antagonism” value [14] is given as 5-HT D-receptor antagonists.
In the case of `CN(C)CCCN1c2ccccc2Sc2ccc(Cl)cc21` [chlorpromazine], the “5-HT D-receptor antagonism” value [14] is listed as 5-HT D-receptor antagonists.
`COc1ccc(C(=O)O[C@H]2C[C@H]3CC[C@@H](C2)N3C)cc1OC` [tropyl 3,4-dimethoxybenzoate, reference compound] gave a Kb [1, 17] of 63.1 nM.
Compound `Cc1ccc(C(=O)O[C@H]2C[C@H]3CC[C@@H](C2)N3C)cc1` [tropyl 4-methylbenzoate, reference compound] has a Kb [1, 17] of 15.8 nM.
In the case of `CN1[C@@H]2CC[C@H]1C[C@@H](OC(=O)c1ccc(Cl)cc1)C2` [tropyl 4-chlorobenzoate, reference compound], the Kb [1, 17] is reported as 100 nM.
In the case of `CN1[C@@H]2CC[C@H]1C[C@@H](OC(=O)c1cc(Cl)cc(Cl)c1)C2` [tropyl 3,5-dichlorobenzoate], the Kb [1] is reported as 0.501 nM, the “potency relative to metoclopramide” value [2] is reported as “many times more potent than metoclopramide” and the LD50 ([3]; ip) is reported as 32 mg/kg. For the same compound, the LD50 ([3]; iv) was 24 mg/kg, the LD50 ([3]; oral) was 90 mg/kg and the toxicity in words [4] was “relatively non-toxic”. It also gave an LD50 [5] of 14 mg/kg, an IC50 [6] of 0.82 nM and an IC50 [7] of 25400 nM. For the same compound, the IC50 [8] was > 50900 nM, the IC50 [9] was > 50900 nM and the IC50 [10] was 12400 nM. The IC50 [11] was 8060 nM, the IC50 [12] was 3680 nM and the IC50 [13] was 28600 nM. The response ([16]; Patient 1, i.v. 1 mg, then 1 hour later, 2 mg) was “no effect on headache or nausea”, the response ([16]; Patient 2 (cluster headache), i.v. 1 mg) was “no effect” and the response ([16]; Patient 3, i.v. 3 mg) was “no effect”. The response ([16]; Patient 4 (cluster headache), i.v. 3 mg) was “no effect”, the response ([16]; Patient 5, i.v. 5 mg) was “no effect” and the “period over which reduction in headache intensity lasted” value ([16]; Patient 6, i.v.) was 21/2. The headache reduction ([16]; Patient 6, i.v. 3 mg single doses) was “slight reduction in their bilateral headache”, the headache reduction ([16]; Patient 6, i.v. 4 mg bid) was “further amelioration” and the “response with increased doses” value ([16]; Patient 6, i.v. 5 mg bid × 2 days, then 6 mg bid × 11 days) was “no greater effect”. For the same compound, the “duration of reduction of pain intensity” value [16, 18] was 4 to 8 h, the “onset of reduction of pain intensity” value [16, 18] was ≤ 30 min and the “reduction of pain intensity” value ([16]; Patient 6, i.v., within 30 minutes after 4 mg dose) was 70-80%. For the same compound, the response ([16]; Patient 7, i.v. 3 mg × 1 day, 5 mg × 2 days, 7 mg × 1 day) was “no effect”, the “return of headache to pretreatment intensity after stopping therapy” value ([16]; Patient 8, after stopping i.v. therapy) was 6 to 7 days and the reduction of pain ([16]; Patient 8, i.v. 3 mg) was “about 30%”. The “response during increasing doses” value ([16]; Patient 8, i.v. 6 mg × 1 day, 7 mg × 2 days, 9 mg × 1 day) was “maintained during increasing doses”, the “episode of pain, nausea, vomiting and photophobia” value [16, 19] was “single episode of pain” and the “symptom return during treatment” value [16, 19] was “single episode of symptom return”. The “symptoms (headache, nausea, vomiting, vertigo, photophobia)” value ([16]; Patient 8, i.v., first dose of 3 mg) was “decrease in all symptoms”, the “tolerance of initial dose” value ([16]; i.v., initial dose 1 mg) was “well tolerated” and the “cumulative dose well tolerated” value ([16]; i.v., over 18 days) was ≤ 177 mg. The “dose administered without any signs of intolerance, daily” value ([16]; i.v., patients) was ≤ 14 mg/day, the “dose well tolerated, repeated doses” value ([16]; i.v., repeated doses, patients with headaches) was “up to 7 mg b.i.d” and the “number of patients responding to repeated doses” value ([16]; repeated i.v. doses, marked diminution of headache and associated symptoms, of three patients) was “two of the three patients”. The “headache and associated symptoms” value ([16]; repeated i.v. doses, two of the three patients (Patients Nos. 6 and 8)) was “marked diminution of headache and associated symptoms” and the “pain intensity and associated symptoms” value ([16]; some patients, i.v. doses of 3 mg or greater) was “pain intensity and associated symptoms were ameliorated”.
